Assay results taken from PMC5564600 (Oncotarget, 2017).

Assays:
Experiment in all cases: biochemical
Type in all cases: binding
[1] = biological target: T1, panel of 442 kinases (Homo sapiens, UniProt P15056); settings: BRAF; for remaining activity at 1 µM: read-out: % of control at 1 µM
T1 construct: purchased Ambit Biosciences (scanMAXX KINOMEscan)

[2] = biological target: T2, panel of 442 kinases (Homo sapiens, UniProt P51617); settings: kinase IRAK1; for remaining activity at 1 µM: read-out: % of control at 1 µM
T2 construct: purchased Ambit Biosciences (scanMAXX KINOMEscan)

[3] = biological target: T3, panel of 442 kinases (Homo sapiens, UniProt Q13873); settings: BMPR2; for remaining activity at 1 µM: read-out: % of control at 1 µM
T3 construct: purchased Ambit Biosciences (scanMAXX KINOMEscan)
T3 sequence (Q13873 27-1038): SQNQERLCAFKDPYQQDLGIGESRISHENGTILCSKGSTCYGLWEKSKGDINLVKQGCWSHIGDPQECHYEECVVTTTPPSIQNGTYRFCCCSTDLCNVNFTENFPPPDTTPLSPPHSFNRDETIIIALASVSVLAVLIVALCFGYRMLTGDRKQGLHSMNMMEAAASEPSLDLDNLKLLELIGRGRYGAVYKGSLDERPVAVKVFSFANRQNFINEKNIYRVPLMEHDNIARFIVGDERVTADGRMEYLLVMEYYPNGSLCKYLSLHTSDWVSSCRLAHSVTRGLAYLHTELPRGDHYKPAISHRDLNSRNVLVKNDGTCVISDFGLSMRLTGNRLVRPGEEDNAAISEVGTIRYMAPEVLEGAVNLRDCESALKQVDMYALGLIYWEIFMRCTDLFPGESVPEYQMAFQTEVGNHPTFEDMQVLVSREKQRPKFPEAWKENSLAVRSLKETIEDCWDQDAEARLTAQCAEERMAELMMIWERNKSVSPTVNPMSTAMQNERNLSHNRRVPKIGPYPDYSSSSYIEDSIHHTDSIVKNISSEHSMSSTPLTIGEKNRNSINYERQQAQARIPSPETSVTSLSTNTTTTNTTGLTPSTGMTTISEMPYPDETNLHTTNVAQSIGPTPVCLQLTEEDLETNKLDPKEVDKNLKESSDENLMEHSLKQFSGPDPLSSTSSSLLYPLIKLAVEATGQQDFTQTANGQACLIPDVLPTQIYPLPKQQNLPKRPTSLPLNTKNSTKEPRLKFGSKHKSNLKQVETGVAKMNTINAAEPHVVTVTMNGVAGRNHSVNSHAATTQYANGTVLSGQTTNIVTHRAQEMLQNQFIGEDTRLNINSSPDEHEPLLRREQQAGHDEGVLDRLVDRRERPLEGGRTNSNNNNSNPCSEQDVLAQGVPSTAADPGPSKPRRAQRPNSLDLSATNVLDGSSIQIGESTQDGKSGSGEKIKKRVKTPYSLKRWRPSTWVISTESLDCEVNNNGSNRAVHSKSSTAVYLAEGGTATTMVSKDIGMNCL

[4] = biological target: T4, panel of 442 kinases (Homo sapiens, UniProt Q7L7X3); settings: kinase TAOK1; for remaining activity at 1 µM: read-out: TAOK1 (% of control at 1 µM)
T4 construct: purchased Ambit Biosciences (scanMAXX KINOMEscan)
T4 sequence (Q7L7X3 1-1001): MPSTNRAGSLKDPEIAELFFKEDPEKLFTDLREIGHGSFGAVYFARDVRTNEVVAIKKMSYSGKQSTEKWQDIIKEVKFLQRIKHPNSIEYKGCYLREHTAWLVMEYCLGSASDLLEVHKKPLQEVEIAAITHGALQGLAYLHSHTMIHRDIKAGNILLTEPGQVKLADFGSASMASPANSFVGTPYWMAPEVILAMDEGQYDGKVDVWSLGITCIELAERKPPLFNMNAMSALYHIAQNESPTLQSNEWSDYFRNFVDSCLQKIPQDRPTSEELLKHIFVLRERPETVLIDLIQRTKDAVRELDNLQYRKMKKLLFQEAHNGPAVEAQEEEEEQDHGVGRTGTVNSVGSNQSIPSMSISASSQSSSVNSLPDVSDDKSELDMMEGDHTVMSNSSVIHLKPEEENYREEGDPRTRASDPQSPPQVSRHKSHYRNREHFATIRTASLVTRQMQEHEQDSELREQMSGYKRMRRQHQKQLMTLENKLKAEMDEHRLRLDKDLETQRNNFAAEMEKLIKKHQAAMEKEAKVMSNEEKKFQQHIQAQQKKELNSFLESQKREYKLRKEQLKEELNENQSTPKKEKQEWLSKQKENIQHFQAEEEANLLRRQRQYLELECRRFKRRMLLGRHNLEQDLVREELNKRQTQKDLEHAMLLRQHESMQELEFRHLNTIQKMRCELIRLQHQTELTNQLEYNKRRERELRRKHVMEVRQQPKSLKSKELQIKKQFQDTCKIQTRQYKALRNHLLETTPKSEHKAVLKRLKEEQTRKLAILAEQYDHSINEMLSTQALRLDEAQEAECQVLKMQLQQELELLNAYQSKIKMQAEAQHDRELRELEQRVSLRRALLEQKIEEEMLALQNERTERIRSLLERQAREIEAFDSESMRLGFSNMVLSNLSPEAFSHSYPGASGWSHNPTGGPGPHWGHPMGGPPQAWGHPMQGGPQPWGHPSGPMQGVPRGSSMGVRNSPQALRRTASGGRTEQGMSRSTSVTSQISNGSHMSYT

[5] = 10 µM, read-out: % of control at 10 µM

T2 sequence (P51617 whole entry): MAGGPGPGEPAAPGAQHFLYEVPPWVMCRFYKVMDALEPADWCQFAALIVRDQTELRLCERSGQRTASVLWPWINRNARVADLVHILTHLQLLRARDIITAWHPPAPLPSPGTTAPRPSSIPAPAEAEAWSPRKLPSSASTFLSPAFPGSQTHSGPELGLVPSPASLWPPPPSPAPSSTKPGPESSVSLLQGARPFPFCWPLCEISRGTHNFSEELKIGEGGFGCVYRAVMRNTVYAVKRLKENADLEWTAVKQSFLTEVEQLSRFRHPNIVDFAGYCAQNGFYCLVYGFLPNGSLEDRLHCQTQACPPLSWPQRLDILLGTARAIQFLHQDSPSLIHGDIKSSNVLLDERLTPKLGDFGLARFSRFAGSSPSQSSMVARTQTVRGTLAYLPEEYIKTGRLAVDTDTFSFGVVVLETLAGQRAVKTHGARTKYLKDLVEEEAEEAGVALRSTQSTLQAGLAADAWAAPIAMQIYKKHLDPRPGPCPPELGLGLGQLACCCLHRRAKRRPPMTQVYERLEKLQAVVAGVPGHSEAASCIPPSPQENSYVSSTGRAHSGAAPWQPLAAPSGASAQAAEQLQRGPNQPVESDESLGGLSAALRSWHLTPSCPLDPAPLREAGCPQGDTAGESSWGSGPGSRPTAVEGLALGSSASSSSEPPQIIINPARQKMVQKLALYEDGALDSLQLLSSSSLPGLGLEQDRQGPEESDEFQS
T1 sequence (P15056 whole entry): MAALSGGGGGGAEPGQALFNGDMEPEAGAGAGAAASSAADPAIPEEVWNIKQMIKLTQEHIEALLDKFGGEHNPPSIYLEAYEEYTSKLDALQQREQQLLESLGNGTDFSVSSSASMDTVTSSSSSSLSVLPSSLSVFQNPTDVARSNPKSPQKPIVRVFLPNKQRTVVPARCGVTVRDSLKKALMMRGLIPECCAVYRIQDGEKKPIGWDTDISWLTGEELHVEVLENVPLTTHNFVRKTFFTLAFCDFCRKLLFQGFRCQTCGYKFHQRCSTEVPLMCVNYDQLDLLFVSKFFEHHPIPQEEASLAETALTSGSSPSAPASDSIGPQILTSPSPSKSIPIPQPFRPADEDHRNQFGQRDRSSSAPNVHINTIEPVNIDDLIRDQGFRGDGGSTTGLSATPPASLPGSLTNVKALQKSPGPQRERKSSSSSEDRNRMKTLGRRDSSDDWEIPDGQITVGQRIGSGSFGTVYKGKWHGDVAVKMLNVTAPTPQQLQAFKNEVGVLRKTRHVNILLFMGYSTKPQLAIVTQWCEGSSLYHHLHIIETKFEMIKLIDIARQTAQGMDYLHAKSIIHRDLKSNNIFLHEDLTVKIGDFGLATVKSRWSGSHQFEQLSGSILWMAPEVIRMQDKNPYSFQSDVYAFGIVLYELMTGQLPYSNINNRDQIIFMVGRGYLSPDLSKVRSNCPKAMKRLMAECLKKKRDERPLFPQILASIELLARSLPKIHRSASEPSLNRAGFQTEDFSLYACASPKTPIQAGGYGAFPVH

| Compound | remaining activity at 1 µM [1] | remaining activity at 10 µM [1, 5] | remaining activity at 1 µM [2] | remaining activity at 10 µM [2, 5] | remaining activity at 1 µM [3] | remaining activity at 10 µM [3, 5] | remaining activity at 1 µM [4] | remaining activity at 10 µM ([4]; 10 µM, read-out: TAOK1 (% of control at 10 µM)) |
| --- | --- | --- | --- | --- | --- | --- | --- | --- |
| Nc1cc(C(F)(F)F)c(-c2cc(N3CCOCC3)nc(N3CCOCC3)n2)cn1 [Buparlisib] | 59% | 40% | 82% | 71% | 86% | 88% | 86% | 82% |
| Cn1c(=O)n(-c2ccc(C(C)(C)C#N)cc2)c2c3cc(-c4cnc5ccccc5c4)ccc3ncc21 [Dactolisib, 2-methyl-2-[4-(3-methyl-2-oxo-8-quinolin-3-yl-2,3-dihydroimidazo[4,5-c]quinolin-1-yl)-phenyl] propionitrile] | 88% | – | 54% | – | 83% | – | 70% | – |
| COc1ncc(-c2ccc3nccc(-c4ccnnc4)c3c2)cc1NS(=O)(=O)c1ccc(F)cc1F [Omipalisib] | – | – | 100% | – | 100% | – | 100% | – |
| FC(F)c1nc2ccccc2n1-c1nc(N2CCOCC2)nc(N2CCOCC2)n1 [ZSTK474, 2-(difluoromethyl)-1-[4,6-di(4-morpholinyl)-1,3,5-triazin-2-yl]-1H-benzimidazole] | 61% | – | 92% | – | 100% | – | 74% | – |
